Experimental data reported in paper PMC11123961, “Design, Synthesis, and Biological Evaluation of the Quorum-Sensing Inhibitors of Pseudomonas aeruginosa PAO1” (Molecules, 2024).
Where two headings read alike, the source gives them in different places.

Assays:
[1] = system: wildtype Caenorhabditis elegans N2 infected with P. aeruginosa PAO1; experiment: C. elegans survival assay; assay type: in vivo; details: after 48 h; agent alone: Y-31 162.5 μM, Tob 0.25 μg/mL
From the text: 3.2.7. C. elegans Survival Assay
The negative control was the PGS agar plate coated with E. Coli OP50. Next, 50 wildtype C. elegans N2 strain-synchronized nematodes (L4 stage) were chosen and placed onto the plates. […] When the nematodes in the study were immobile, they were deemed dead. The number of nematodes that survived was tabulated to generate a survival curve.

C. violaceum CV026 QS [2] = experiment: Half-maximal inhibitory concentration against C. violaceum CV026 QS (suppression of violacein production); assay type: cell-based; details: Chromobacterium violaceum; C6-HSL-induced violacein production, 12 h; mean ± SD of three independent tests; read-out: IC50, anti-CV026 QS activity
From the text: In the exploration of the QS inhibitions, C. violaceum CV026, a mini-T5 mutant of C. violaceum ATCC31532, is frequently employed as a biosensor strain. Because C. violaceum CV026 lacks the CviI gene, which directs the synthesis of AHLs, it is unable to manufacture violacein on its own. The violacein reaction can be induced in C. violaceum CV026 by adding exogenous C6-HSL [27]. As a result, the violacein reaction in C. violaceum CV026 can be used to assess the compounds’ suppression of QS, as used in this investigation.
3.2.2. The Half-Maximal Inhibitory Concentration (IC50) of Compounds against C. violaceum CV026 QS [36]
Subsequently, the log phase of C. violaceum CV026 was placed in a 12-well plate (2 mL/well) after being diluted 10-fold with fresh LB medium. The experimental group received 15 μL of the diluted inducer C6-HSL (0.125 mM), and 8 μL of each dilution gradient compound was added to each well, while the positive control group received 8 μL of C10-HSL, and the blank control group received 8 μL of LB medium. The plates were incubated at 30 °C and 130 rpm for 12 h. After centrifuging 1 mL of the culture for 10 min at 11,255 g, the supernatant was discarded. After dissolving the violacein with 500 μL of DMSO, the mixture was centrifuged once more at 11,255 g for 10 min. In order to measure the absorbance at 585 nm, 200 μL of the upper pigment was added to a 96-well plate. The IC50 was calculated using GraphPad Prism 5 according to the formula (absorbance at 585 nm of the test concentration/the absorbance of the control at 585 nm × 100%).

C. violaceum CV026 QS [3] = experiment: as above; assay type: cell-based; details: qualitative preliminary screening
[4] = system: P. aeruginosa PAO1 biofilms; experiment: Biofilm quantification, crystal violet assay; assay type: cell-based, Pseudomonas aeruginosa; details: for inhibition at 20.3125 µM / inhibition at 40.625 µM / inhibition at 81.25 µM / inhibition at 162.5 µM / inhibition at 325 µM: Pseudomonas aeruginosa, PAO1, 20 h, read-out: Inhibition ratio of biofilm; for inhibition at 20.3125 µM: concentration 20.3125 (unit not given in Table S1; μM in method); for inhibition at 40.625 µM: concentration 40.625 (unit not given in Table S1; μM in method); for inhibition at 81.25 µM: concentration 81.25 (unit not given in Table S1; μM in method); for inhibition at 162.5 µM: concentration 162.5 (unit not given in Table S1; μM in method); for inhibition at 325 µM: concentration 325 (unit not given in Table S1; μM in method)
Description: 3.2.3. Biofilm Quantification Assays
The crystal violet assay was used to quantitatively analyze the biofilm, as previously described. P. aeruginosa PAO1 log phase was diluted 100 times with fresh LB medium and incubated for 3.5 h at 37 °C and 150 rpm. After that, the P. aeruginosa PAO1 bacterial culture was added to the 96-well plate. P. aeruginosa PAO1 bacterial culture in 90 μL was added to the experimental group, and 10 μL of the test compound at a final concentration of 325 μM, 162.5 μM, 81.25 μM, 40 μM, 20 μM, and 10 μM. Each well received 100 μL of bacterial culture for the control group and 100 μL of fresh LB medium for the blank group. After 20 h of incubation at 37 °C, the bacterial culture was removed from the 96-well plate, and it was dried after three PBS washes. Each well received […] of 0.1% crystal violet (CV) for a 15 min staining period. Each well was washed three times with PBS after the CV was removed. Lastly, each well received 150 μL of 33% glacial acetic acid, and a Biotek multi-function microplate reader was used to measure the absorbance value at 595 nm. The biofilm inhibition rate was calculated as follows = (OD595 blank − OD595 sample)/OD595 blank × 100%.

C. violaceum CV026 QS [5] = system: C. violaceum CV026 QS; design: method as in earlier work; details: lead compound, value of Zhao; cited from earlier work

Row | Structure (SMILES) | IC50 (C. violaceum CV026 QS [2]) [µM] | C. violaceum CV026 QS inhibitory activity (first assessment) (C. violaceum CV026 QS [3]) | inhibition at 20.3125 µM [4] [%] | inhibition at 40.625 µM [4] [%] | inhibition at 81.25 µM [4] [%] | inhibition at 162.5 µM [4] [%] | inhibition at 325 µM [4] [%] | further results
1 | NC[C@H]1O[C@H](O[C@H]2[C@H](O)[C@@H](O[C@H]3O[C@H](CO)[C@@H](O)[C@H](N)[C@H]3O)[C@H](N)C[C@@H]2N)[C@H](N)C[C@@H]1O [Tob, Tobramycin, reference compound] |  |  |  |  |  |  |  | Improvement of the survival rate of infected nematodes (average) [1]: 63.33%
2 | O=C(CCCOc1ccc(Br)nc1)NN1CCOC1=O [Y-9] | 168 ± 7.28 | inhibited |  |  |  |  |  | 
3 | O=C(CCCOc1ccc2ccccc2c1)NN1CCOC1=O [Y-29] | 26.1 ± 2.52 | inhibited | 9.51 | 32.7 | 34.7 | 40.9 | 9.07 | 
4 | CCCCc1ccc(OCCCC(=O)NN2CCOC2=O)cc1 [Y-17] | > 260 |  |  |  |  |  |  | 
5 | O=C(CCCOc1ccc2ccncc2c1)NN1CCOC1=O [Y-1] | 199 ± 13.9 | inhibited |  |  |  |  |  | 
6 | O=C(NN1CCOC1=O)c1ccccc1 [AOZ-1] |  |  |  |  |  |  |  | IC50 (C. violaceum CV026 QS [5]): > 200 µM
7 | O=C(CCCOc1ccccc1)NN1CCOC1=O [Y-28] | 232 ± 5.84 | inhibited |  |  |  |  |  | 
8 | O=C(CCCOc1ccc(C(F)(F)F)cc1)NN1CCOC1=O [Y-25] | 62.6 ± 3.27 | inhibited | 18.8 | 32.2 | 33.4 | 39.9 | 32.2 | 
9 | CCCCCCCCCC(=O)N[C@H]1CCOC1=O [C10-HSL, reference compound] | 0.15 ± 0.024 |  | -4.35 | 2.25 | 0.25 | 6.3 | -18.8 | Effect on the biofilm of P. aeruginosa PAO1 ([4]; crystal violet assay): no significant inhibitory effect
10 | O=C(CCCSc1ccc(Br)cc1)NN1CCOC1=O [Y-39] | 47.4 ± 1.74 |  | 12.9 | 23.4 | 28.4 | 24.9 | 21.2 | 
11 | O=C(CCCOc1cccc2ccccc12)NN1CCOC1=O [Y-37] | 102 ± 4.36 |  | 15.3 | 35.1 | 36.4 | 28.7 | 18.2 | 
12 | O=C(CCCOc1ccc(I)cc1)NN1CCOC1=O [Y-26] | 27.6 ± 1.25 | inhibited | 2.17 | 33.5 | 42.5 | 44.6 | 38.7 | 
13 | Cc1ccc(OCCCC(=O)NN2CCOC2=O)c(C)c1 [Y-40] | 180.5 ± 1.77 |  |  |  |  |  |  | 
14 | O=C(CCCOc1ccc(Br)cc1)NN1CCCOC1=O [Y-6] | > 260 |  |  |  |  |  |  | 
15 | CC(C)c1ccc(OCCCC(=O)NN2CCOC2=O)cc1 [Y-38] | > 260 |  |  |  |  |  |  | 
16 | O=C(CCCCOc1ccc(Br)cc1)NN1CCCOC1=O [Y-4] | > 260 |  |  |  |  |  |  | 
17 | CCc1ccc(OCCCC(=O)NN2CCOC2=O)cc1 [Y-19] | 153 ± 8.78 |  |  |  |  |  |  | 
18 | O=C(CCCOc1cnc(Br)cn1)NN1CCOC1=O [Y-15] | 91.3 ± 3.02 | inhibited | 6.73 | 27 | 36.8 | 33.9 | 32.1 | 
19 | CC(C)(C)Oc1ccc(OCCCC(=O)NN2CCOC2=O)cc1 [Y-18] | > 260 |  |  |  |  |  |  | 
20 | COc1ccc(OCCCC(=O)NN2CCOC2=O)cc1 [Y-3] | 208 ± 7.26 | inhibited |  |  |  |  |  | 
21 | O=C(CCCOc1ccc(-c2ccccc2)cc1)NN1CCOC1=O [Y-5] | 125 ± 16.1 |  |  |  |  |  |  | 
